Publication PMC7206685, “Interactions between host biogenic amines and sand fly salivary yellow-related proteins” (Parasites & Vectors, 2020)
pKd: −log10 of the molar value.

Molecular target: T1, PagSP04 (Phlebotomus argentipes, UniProt Q0ZSU5)
T1 construct: secreted recombinant protein from HEK293S GnTI- cells (pTW5sec); IMAC and size exclusion
T1 sequence (Q0ZSU5 19-398): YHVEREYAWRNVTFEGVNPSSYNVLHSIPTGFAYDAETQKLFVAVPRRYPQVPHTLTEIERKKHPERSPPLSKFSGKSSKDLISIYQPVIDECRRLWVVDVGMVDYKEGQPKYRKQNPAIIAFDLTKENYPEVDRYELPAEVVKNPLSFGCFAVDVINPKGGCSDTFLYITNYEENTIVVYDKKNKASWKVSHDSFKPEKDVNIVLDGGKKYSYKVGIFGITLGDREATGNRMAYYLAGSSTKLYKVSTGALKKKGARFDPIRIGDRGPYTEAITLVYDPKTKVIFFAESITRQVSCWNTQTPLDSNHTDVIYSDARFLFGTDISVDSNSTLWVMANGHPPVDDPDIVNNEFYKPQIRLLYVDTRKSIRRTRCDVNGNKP
Assay: microscale thermophoresis
Assay type: binding
Excerpt: microscale thermophoresis on PagSP04

Row | SMILES | pKd
1 | NCCc1c[nH]cn1 [Histamine] | 5.03
2 | NCCc1c[nH]c2ccc(O)cc12 [Serotonin] | 7.06
